In ChEMBL document CHEMBL4033634, “Synthesis and biological evaluation of novel aromatic and heterocyclic bis-sulfonamide Schiff bases as carbonic anhydrase I, II, VII and IX inhibitors” (Bioorg Med Chem, 2017):
pKi: −log10 of the molar value.

Experiments:
Carbonic anhydrase 9 = Carbonic anhydrase 9 (Homo sapiens, UniProt Q16790); assay: Inhibition of human carbonic anhydrase 9 incubated for 10 mins by stopped flow CO2 hydrase assay
Carbonic anhydrase 1 = Carbonic anhydrase 1 (Homo sapiens, UniProt P00915); assay: Inhibition of human carbonic anhydrase 1 incubated for 10 mins by stopped flow CO2 hydrase assay
Carbonic anhydrase 1, sequence (P00915 whole entry): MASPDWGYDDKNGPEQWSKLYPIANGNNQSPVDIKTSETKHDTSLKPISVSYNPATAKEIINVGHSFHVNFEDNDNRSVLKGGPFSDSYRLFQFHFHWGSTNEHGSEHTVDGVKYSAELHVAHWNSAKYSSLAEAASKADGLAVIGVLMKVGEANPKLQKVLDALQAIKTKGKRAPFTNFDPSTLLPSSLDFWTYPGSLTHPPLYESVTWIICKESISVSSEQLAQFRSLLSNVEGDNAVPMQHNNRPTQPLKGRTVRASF

| Structure (SMILES) | pKi (Carbonic anhydrase 9) | pKi (Carbonic anhydrase 1) |
| --- | --- | --- |
| NS(=O)(=O)c1ccc(/N=C/c2ccc(/C=N/c3ccc(S(N)(=O)=O)cc3)o2)cc1 | 7.12 | – |
| NS(=O)(=O)c1cccc(/N=C/c2ccc(/C=N/c3cccc(S(N)(=O)=O)c3)o2)c1 | 6.29 | < 5.00 |
| NS(=O)(=O)c1nnc(/N=C/c2ccccc2/C=N/c2nnc(S(N)(=O)=O)s2)s1 | 8.24 | – |
| NS(=O)(=O)c1ccc(CC/N=C/c2ccc(/C=N/CCc3ccc(S(N)(=O)=O)cc3)cc2)cc1 | 6.58 | – |
| NS(=O)(=O)c1ccc(/N=C/c2cccc(/C=N/c3ccc(S(N)(=O)=O)cc3)c2)cc1 | 7.03 | – |
| NS(=O)(=O)c1cccc(/N=C/c2ccc(/C=N/c3cccc(S(N)(=O)=O)c3)cc2)c1 | 5.83 | – |
| NS(=O)(=O)c1nnc(/N=C/c2ccc(/C=N/c3nnc(S(N)(=O)=O)s3)cc2)s1 | 7.60 | – |
| NS(=O)(=O)c1ccc(/N=C/c2ccc(/C=N/c3ccc(S(N)(=O)=O)cc3)cc2)cc1 | 6.03 | – |
| NS(=O)(=O)c1cccc(/N=C/c2cccc(/C=N/c3cccc(S(N)(=O)=O)c3)c2)c1 | 6.17 | – |
| NS(=O)(=O)c1ccc(CC/N=C/c2ccc(/C=N/CCc3ccc(S(N)(=O)=O)cc3)o2)cc1 | 6.82 | – |
| NS(=O)(=O)c1nnc(/N=C/c2cccc(/C=N/c3nnc(S(N)(=O)=O)s3)c2)s1 | 9.30 | – |
| NS(=O)(=O)c1ccc(/N=C/c2ccccc2/C=N/c2ccc(S(N)(=O)=O)cc2)cc1 | 7.66 | – |
| NS(=O)(=O)c1ccc(CC/N=C/c2ccccc2/C=N/CCc2ccc(S(N)(=O)=O)cc2)cc1 | 7.75 | – |
| NS(=O)(=O)c1nnc(/N=C/c2ccc(/C=N/c3nnc(S(N)(=O)=O)s3)o2)s1 | 8.23 | – |
| NS(=O)(=O)c1ccc(CC/N=C/c2cccc(/C=N/CCc3ccc(S(N)(=O)=O)cc3)c2)cc1 | 6.50 | – |
| NS(=O)(=O)c1cccc(/N=C/c2ccccc2/C=N/c2cccc(S(N)(=O)=O)c2)c1 | 7.05 | – |
